Reference: paper PMC6272846, “Synthesis and p38 Inhibitory Activity of Some Novel Substituted N,N′-Diarylurea Derivatives” (Molecules, 2016)

Assays:
[1] = biological target: MAPK14/p38α (Homo sapiens, UniProt Q16539); experiment: p38α MAP kinase activity, phosphorylation of ATF-2 (TR-FRET); type: biochemical; settings: enzyme
Experimental: Kinase reaction buffer was composed of 50 mM HEPES (pH 7.5), 0.01% BRIJ-35, 10 mM MgCl2 and 1 mM EGTA. Prepared MAPK14/p38α in 1× kinase buffer with concentration at 500 ng/mL. A 2-fold serial dilution was performed using 1× kinase buffer from 500 ng/mL using 16 dose points. […] The reaction was started by adding 5 μL of the GFP-ATF2(19–96) substrate and ATP solution into each well of the assay plate. The final starting concentration of MAPK14/p38α was 250ng/ml, and the final GFP-ATF2 and ATP concentrations were 0.4 μM and 90 μM, respectively. The assay plate was sealed and incubated for 1 hour at room temperature (RT). Antibody solution (1 mL) was prepared from 20 mM EDTA and 4 nM Tb-antipATF2 (pThr71) antibody in TR-FRET dilution buffer. Antibody solution (10 μL) was added into each well of the assay plate and mixed gently. The final EDTA concentration was 10 mM, and the final Tb-antipATF2 (pThr71) concentration was 2 nM. The assay plate was sealed and incubated for 30 minutes at RT.
Inhibitor in 0.5% DMSO (2 μL/well) at 5-fold the final assay concentration was added into a 384-well assay plate. […] MAPK14/p38α (4 μL/well) was added to each well of the 384-well assay plate and incubated for 15 min at RT. To start the reaction, substrate GFP-ATF2 (19–96) and ATP (4 μL/well) were added into kinase reaction buffer. […] The resulting TR-FRET emission ratio was plotted against the concentration of inhibitor, and the data fitted to a sigmoidal dose-response curve with a variable slope. The IC50 concentration was calculated from the curve.

[2] = tested on: TNF-α release from THP-1 cells; experiment: Inhibition of TNF-α release from THP-1 cells after LPS stimulation; type: cell-based; settings: Homo sapiens; LPS-stimulated THP-1 cells
Experimental: LPS stock was prepared at 1 mg/mL by adding 1 mL sterile endotoxin-free water to 1 mg LPS powder. The LPS stock was aliquoted and stored at −20 °C. […] An amount of 100 K THP-1 cells were seeded into a 96-well cell culture plate in 100 μL of test medium. […] A total of 10 μL compound was added to the plate with cells, and the cells were incubated for 1 hour at 37 °C. An amount of 10 μL/well LPS was added to stimulate the cells. The final LPS concentration was 300 ng/mL, and the DMSO concentration was 0.3%. […]. The plate was incubated for 5 hours at 37 °C. […] Three replicates were used for each dose. At the 5th hour, the TNF-α in the supernatants and standard curve samples was determined using the HTRF kit. […] Amounts of 5 μL Anti-TNF-α-Cryptate (Invitrogen, Carlsbad, CA, USA) and 5 μL Anti-TNFα-XL665 (Invitrogen) were added, and the plate was incubated at RT for 15 h. The plate was read on an Envision instrument (PerkinElmer) and the IC50 was calculated.

[3] = tested on: MAPKAPK2; experiment: Inhibition of MAPKAPK2 in GFP-MAPKAPk2_BHK cell model (nuclear translocation); type: cell-based; settings: GFP-MAPKAPk2_BHK cells
Experimental: In order to study p38α inhibition in a cell system, we investigated the ability of all compounds to inhibit the phosphorylation of mitogen-activated protein-kinase-activated protein kinase 2 (MAPKAPK2). Each compound was prepared at […] concentrations (1, 3, 10 and 30 nM, 0.1 and 0.3 μM), and the percentages of inhibition were calculated from the numbers of cells after treatment with the different compounds.
GFP-MAPKAPk2_BHK cells were cultured in 96-well plates (2.0 × 10^4/100 μL/well) containing 10% heat-inactivated foetal bovine serum (FBS) and 1 mg/mL G418 at 37 °C in humidified air containing 5% CO2 for 18–24 h. The cells were washed with nutrient solution (100 μL/well) and changed to the compound liquid (100 μL/well). Experiments were set up with the control, and the compound was repeated at each concentration in three wells. The cells were cultured in 96-well plates at 37 °C in humidified air containing 5% CO2 for 90 min. The cells were washed with the dye solution (20 μL/well), and the dyed cells were held for 1 hour at room temperature in the dye liquid. Analysis of nuclear translocation and calculation of the ability of the compounds to inhibit nuclear translocation was performed using the IN Cell Analyzer 1000 Nuclear Trafficking Analysis Module System (GE, Madison, WI, USA). The cultured cells were treated with the obtained compounds in […] concentration grads (1, 3, 10 and 30 nM, 0.1 and 0.3 μM). The inhibitory percentage can be calculated using the amounts of cells after the disposition of the different compounds.

MAPK14/p38α, sequence (Q16539 whole entry): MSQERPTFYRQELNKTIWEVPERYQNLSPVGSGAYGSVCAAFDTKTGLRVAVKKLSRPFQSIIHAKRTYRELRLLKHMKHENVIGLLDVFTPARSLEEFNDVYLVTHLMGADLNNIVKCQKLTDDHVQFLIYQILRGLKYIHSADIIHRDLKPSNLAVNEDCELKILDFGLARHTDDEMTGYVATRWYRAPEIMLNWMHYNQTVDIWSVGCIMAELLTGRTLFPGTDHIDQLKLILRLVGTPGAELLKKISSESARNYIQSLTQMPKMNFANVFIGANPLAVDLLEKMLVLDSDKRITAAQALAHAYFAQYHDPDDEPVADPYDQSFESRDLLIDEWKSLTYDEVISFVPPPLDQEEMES

| Structure (SMILES) | IC50 ([1]; GFP-ATF2 substrate, 90 μM ATP) | IC50 [2] | IC50 [3] | IC50 ([1]; bound given in µM) | IC50 ([3]; bound given in µM) |
| --- | --- | --- | --- | --- | --- |
| COc1ccc(-n2nc(C(C)(C)C)cc2NC(=O)NCc2ccccc2Oc2ccc3[nH]ncc3c2)cc1 [25d, 1-(2-((1H-Indazol-5-yl)oxy)benzyl)-3-(3-(tert-butyl)-1-(4-methoxyphenyl)-1H-pyrazol-5-yl)urea] | 0.00122 ± 0.00032 µM | 1.43 ± 0.07 nM | 0.00545 ± 0.00043 µM |  |  |
| CC(C)(C)c1cc(NC(=O)NCc2ccccc2Oc2ccc3[nH]ncc3c2)n(-c2ccc(Cl)cc2)n1 [25e, 1-(2-((1H-Indazol-5-yl)oxy)benzyl)-3-(3-(tert-butyl)-1-(4-chlorophenyl)-1H-pyrazol-5-yl)urea] |  | 3.48 ± 0.46 nM | 0.00992 ± 0.00065 µM |  |  |
| CC(C)(C)c1cc(NC(=O)NCc2ccccc2Oc2ccc3[nH]ncc3c2)n(-c2ccc(Br)cc2)n1 [25f, 1-(2-((1H-Indazol-5-yl)oxy)benzyl)-3-(1-(4-bromophenyl)-3-(tert-butyl)-1H-pyrazol-5-yl)urea] | 0.00073 ± 1e-05 µM | 1.82 ± 0.15 nM | 0.0074 ± 0.00087 µM |  |  |
| CC(C)(C)c1cc(NC(=O)NCc2ccccc2Oc2ccc3[nH]ncc3c2)n(-c2ccc(F)cc2)n1 [25g, 1-(2-((1H-Indazol-5-yl)oxy)benzyl)-3-(3-(tert-butyl)-1-(4-fluorophenyl)-1H-pyrazol-5-yl)urea] | 0.00066 ± 9e-05 µM | 2 ± 0.01 nM | 0.00316 ± 0.00131 µM |  |  |
| CC(C)(C)c1cc(NC(=O)NCc2cc(F)ccc2Oc2ccc3[nH]ncc3c2)n(-c2ccc([N+](=O)[O-])cc2)n1 [25i, 1-(2-((1H-Indazol-5-yl)oxy)-5-fluorobenzyl)-3-(3-(tert-butyl)-1-(4-nitrophenyl)-1H-pyrazol-5-yl)urea] | 0.00143 ± 8e-05 µM |  | 0.00383 ± 0.00112 µM |  |  |
| Cc1ccc(-n2nc(C(C)(C)C)cc2NC(=O)NCc2cc(F)ccc2Oc2ccc3[nH]ncc3c2)cc1 [25j, 1-(2-((1H-Indazol-5-yl)oxy)-5-fluorobenzyl)-3-(3-(tert-butyl)-1-(p-tolyl)-1H-pyrazol-5-yl)urea] | 0.00153 ± 7e-05 µM |  | 0.00361 ± 0.00243 µM |  |  |
| CC(C)(C)c1cc(NC(=O)NCc2ccccc2Oc2ccc3[nH]ncc3c2)n(-c2ccc(S(N)(=O)=O)cc2)n1 [25k, 4-(5-(3-(2-((1H-Indazol-5-yl)oxy)benzyl)ureido)-3-(tert-butyl)-1H-pyrazol-1-yl)benzenesulfonamide] |  | 8.69 ± 0.01 nM | 0.039 ± 0.00576 µM |  |  |
| CC(C)(C)c1cc(NC(=O)Nc2ccc(Oc3ccc4[nH]ncc4c3)c3c2OCC=C3)n(-c2ccccc2)n1 [26b, 1-(5-((1H-Indazol-5-yl)oxy)-2H-chromen-8-yl)-3-(3-(tert-butyl)-1-phenyl-1H-pyrazol-5-yl)urea] | 0.00514 ± 0.00033 µM |  | 0.0223 ± 0.00188 µM |  |  |
| CC(C)(C)c1cc(NC(=O)Nc2ccc(Oc3ccc4[nH]ncc4c3)c3c2OCC=C3)n(-c2ccc(F)cc2)n1 [26e, 1-(5-((1H-Indazol-5-yl)oxy)-2H-chromen-8-yl)-3-(3-(tert-butyl)-1-(4-fluorophenyl)-1H-pyrazol-5-yl)urea] | 0.00596 ± 1e-05 µM |  | 0.038 ± 0.00124 µM |  |  |
| Cc1ccc(-n2nc(C(C)(C)C)cc2NC(=O)NCc2ccccc2Oc2ccc3c(c2)CCCC3O)cc1 (stereo not shown) [27a, 1-(3-(tert-Butyl)-1-(p-tolyl)-1H-pyrazol-5-yl)-3-(2-((5-hydroxy-5,6,7,8-tetrahydronaphthalen-2-yl)oxy)-benzyl)urea] | 0.00359 ± 0.00021 µM | 15.3 ± 2.56 nM | 0.13341 ± 7e-05 µM |  |  |
| CC(C)(C)c1cc(NC(=O)NCc2cc(F)ccc2Oc2ccc3c(c2)CCCC3O)n(-c2ccc([N+](=O)[O-])cc2)n1 (stereo not shown) [27d, 1-(3-(tert-Butyl)-1-(4-nitrophenyl)-1H-pyrazol-5-yl)-3-(5-fluoro-2-((5-hydroxy-5,6,7,8-tetrahydro-naphthalen-2-yl)oxy)benzyl)urea] | 0.00576 ± 0.00024 µM | 130 ± 3.33 nM |  |  |  |
| Cc1ccc(-n2nc(C(C)(C)C)cc2NC(=O)NCc2cc(F)ccc2Oc2ccc3c(c2)CCCC3O)cc1 (stereo not shown) [27e, 1-(3-(tert-Butyl)-1-(p-tolyl)-1H-pyrazol-5-yl)-3-(5-fluoro-2-((5-hydroxy-5,6,7,8-tetrahydronaphthalen-2-yl)-oxy)benzyl)urea] | 0.005 ± 0.00053 µM | 182 ± 4.35 nM |  |  |  |
| Cc1ccc(-n2nc(C(C)(C)C)cc2NC(=O)Nc2ccccc2OCCN2CCOCC2)cc1 [28a, 1-(3-(tert-Butyl)-1-(p-tolyl)-1H-pyrazol-5-yl)-3-(2-(2-morpholinoethoxy)phenyl)urea] |  |  |  | > 10 µM | > 10 µM |
| CC(C)(C)c1cc(NC(=O)Nc2ccccc2OCCN2CCOCC2)n(-c2ccccc2)n1 [28b, 1-(3-(tert-Butyl)-1-phenyl-1H-pyrazol-5-yl)-3-(2-(2-morpholinoethoxy)phenyl)urea] |  |  |  | > 10 µM | > 10 µM |
| Cc1ccc(-n2nc(C(C)(C)C)cc2NC(=O)Nc2ccccc2Oc2ccc3[nH]ncc3c2)cc1 [29a, 1-(2-((1H-Indazol-5-yl)oxy)phenyl)-3-(3-(tert-butyl)-1-(p-tolyl)-1H-pyrazol-5-yl)urea] |  |  |  | > 10 µM | > 10 µM |
| CC(C)(C)c1cc(NC(=O)Nc2ccccc2Oc2ccc3[nH]ncc3c2)n(-c2ccccc2)n1 [29b, 1-(2-((1H-Indazol-5-yl)oxy)phenyl)-3-(3-(tert-butyl)-1-phenyl-1H-pyrazol-5-yl)urea] |  |  |  | > 10 µM | > 10 µM |
| CC(C)(C)c1cc(NC(=O)Nc2ccccc2Oc2ccc3[nH]ncc3c2)n(-c2ccc(F)cc2)n1 [29g, 1-(2-((1H-Indazol-5-yl)oxy)phenyl)-3-(3-(tert-butyl)-1-(4-fluorophenyl)-1H-pyrazol-5-yl)urea] |  |  |  |  | > 10 µM |
| CC(C)(C)c1cc(NC(=O)Nc2ccccc2Oc2ccc3[nH]ncc3c2)n(-c2ccc([N+](=O)[O-])cc2)n1 [29h, 1-(2-((1H-Indazol-5-yl)oxy)phenyl)-3-(3-(tert-butyl)-1-(4-nitrophenyl)-1H-pyrazol-5-yl)urea] |  |  |  |  | > 10 µM |
| CC(C)(C)c1cc(NC(=O)Nc2ccccc2Oc2ccc3[nH]ncc3c2)n(-c2ccc(S(N)(=O)=O)cc2)n1 [29i, 4-(5-(3-(2-((1H-Indazol-5-yl)oxy)phenyl)ureido)-3-(tert-butyl)-1H-pyrazol-1-yl)benzenesulfonamide] |  |  |  |  | > 10 µM |
| CC(C)(C)c1cc(NC(=O)NCc2ccccc2OCCN2CCOCC2)n(-c2ccc(Cl)cc2)n1 [30a, 1-(3-(tert-Butyl)-1-(4-chlorophenyl)-1H-pyrazol-5-yl)-3-(2-(2-morpholinoethoxy)benzyl)urea] |  |  |  |  | > 3 µM |
| Cc1ccc(-n2nc(C(C)(C)C)cc2NC(=O)NCc2ccccc2OCCN2CCOCC2)cc1 [30b, 1-(3-(tert-Butyl)-1-(p-tolyl)-1H-pyrazol-5-yl)-3-(2-(2-morpholinoethoxy)benzyl)urea] |  |  |  |  | > 3 µM |
| CC(C)(C)c1cc(NC(=O)NCc2ccccc2OCCN2CCOCC2)n(-c2ccc(S(N)(=O)=O)cc2)n1 [30c, 4-(3-(tert-Butyl)-5-(3-(2-(2-morpholinoethoxy)benzyl)ureido)-1H-pyrazol-1-yl)benzenesulfonamide] |  |  |  |  | > 3 µM |
| CC(C)(C)c1cc(NC(=O)NCc2ccccc2OCCN2CCOCC2)n(-c2ccccc2)n1 [30d, 1-(3-(tert-Butyl)-1-phenyl-1H-pyrazol-5-yl)-3-(2-(2-morpholinoethoxy)benzyl)urea] |  |  |  |  | > 3 µM |
